Source: US7138361B2, “Herbicidal heterocycles” (E. I. du Pont de Nemours and Company, priority 2000, dated 2006)

How the values were obtained:
Assay type in all cases: in vivo
[1] = system: Surinam grass (Brachiaria decumbens); assay: Test B postemergence; settings: 13 to 15 days
How it was run: (§1)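 Ratings on a 0 to 100 visual scale (100 complete control) compare treated plants with controls 13 to 15 days after application. Treatments were pre- or postemergence sprays of compound in non-phytotoxic solvent with surfactant.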

[2] = system: barnyardgrass (Echinochloa crus-galli); assay: Test B postemergence; settings: 13 to 15 days
How it was run: as §1

[3] = system: cocklebur (Xanthium strumarium); assay: Test B postemergence; settings: 13 to 15 days
How it was run: as §1

corn (Zea mays) [4] = assay: Test B postemergence; settings: 13 to 15 days
How it was run: as §1

[5] = system: crabgrass (Digitaria sanguinalis); assay: Test B postemergence; settings: 13 to 15 days
How it was run: as §1

[6] = system: giant foxtail (Setaria faberii); assay: Test B postemergence; settings: 13 to 15 days
How it was run: as §1

[7] = system: morning glory (Ipomoea hederacea); assay: Test B postemergence; settings: 13 to 15 days
How it was run: as §1

[8] = system: pigweed (Amaranthus retroflexus); assay: Test B postemergence; settings: 13 to 15 days
How it was run: as §1

[9] = system: velvetleaf (Abutilon theophrasti); assay: Test B postemergence; settings: 13 to 15 days
How it was run: as §1

[10] = system: wheat (Triticum aestivum); assay: Test B postemergence; settings: 13 to 15 days
How it was run: as §1

wild oat (Avena fatua) = assay: Test B postemergence; settings: 13 to 15 days
How it was run: as §1

Nightshade = assay: Test C preemergence
Sunflower [11] = assay: Test C preemergence; settings: Rate 125 g/ha; scale 0 to 100, 0 no effect, 100 complete control
[12] = system: common ragweed (Ambrosia elatior); assay: Test C preemergence; settings: for Plant response rating (0 to 100), Ragweed, Common: Rate 500 g/ha, visual evaluation after 12 to 14 days
How it was run: (§2)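 Each compound was dissolved in a non-phytotoxic solvent system containing a surfactant and sprayed either on freshly planted seeds (preemergence) or on young plants, 2 to 18 cm high (postemergence). Ratings after 12 to 14 greenhouse days ran from 0, no effect, to 100, complete control.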

corn (Zea mays) [13] = assay: Test C preemergence; settings: for Plant response rating (0 to 100), Corn: visual evaluation after 12 to 14 days
How it was run: as §2

[14] = system: goosegrass (Eleusine indica); assay: Test C preemergence; settings: for Plant response rating (0 to 100), Goosegrass: visual evaluation after 12 to 14 days
How it was run: as §2

[15] = system: johnsongrass (Sorghum halepense); assay: Test C preemergence; settings: for Plant response rating (0 to 100), Johnsongrass: visual evaluation after 12 to 14 days
How it was run: as §2

[16] = system: lambsquarters (Chenopodium album); assay: Test C preemergence; settings: for Plant response rating (0 to 100), Lambsquarters: Rate 500 g/ha, visual evaluation after 12 to 14 days
How it was run: as §2

[17] = system: morningglory (Ipomoea hederacea); assay: Test C preemergence; settings: for Plant response rating (0 to 100), Morningglory: Rate 500 g/ha, visual evaluation after 12 to 14 days
How it was run: as §2

[18] = system: velvetleaf (Abutilon theophrasti); assay: Test C preemergence; settings: for Plant response rating (0 to 100), Velvetleaf: Rate 500 g/ha, visual evaluation after 12 to 14 days
How it was run: as §2

[19] = system: yellow nutsedge (Cyperus esculentus); assay: Test C preemergence; settings: for Plant response rating (0 to 100), Nutsedge: Rate 500 g/ha, visual evaluation after 12 to 14 days
How it was run: as §2

Sunflower [20] = assay: Test C preemergence; settings: Rate 500 g/ha, visual evaluation after 12 to 14 days
[21] = Rate 125 g/ha, scale 0 (no effect) to 100 (complete control)
[22] = Rate 500 g/ha, scale 0 to 100, 0 is no effect, 100 is complete control
[23] = Rate 125 g/ha, scale 0 to 100, 0 no effect, 100 complete control
[24] = Rate 250 g/ha, scale 0 to 100, 0 no effect, 100 complete control
[25] = preemergence, Rate 62 g/ha, scale 0 to 100
[26] = preemergence, Rate 250 g/ha, scale 0 to 100, 0 no effect, 100 complete control

CCC(CC)c1ccn(C2CCN(c3cccc(OC(C)C)c3)C2=O)n1 (stereo not drawn) [Compound 84]
Plant response rating, Surinam grass [1, 21]: 0 | Plant response rating, Surinam grass [1, 22]: 10 | Plant response rating, Barnyardgrass [2, 21]: 0 | Plant response rating, Barnyardgrass [2, 22]: 80 | Plant response rating, Cocklebur [3, 21]: 10 | Plant response rating, Cocklebur [3, 22]: 20 | Plant response rating, Corn (corn (Zea mays) [4]; [21]): 0 | Plant response rating, Corn (corn (Zea mays) [4]; [22]): 0 | Plant response rating, Crabgrass [5, 21]: 0 | Plant response rating, Crabgrass [5, 22]: 10 | Plant response rating, Foxtail, Giant [6, 21]: 0 | Plant response rating, Foxtail, Giant [6, 22]: 10 | Plant response rating, Morningglory [7, 21]: 10 | Plant response rating, Morningglory [7, 22]: 30 | Plant response rating, Pigweed [8, 21]: 60 | Plant response rating, Pigweed [8, 22]: 70 | Plant response rating, Velvetleaf [9, 21]: 0 | Plant response rating, Velvetleaf [9, 22]: 10 | Plant response rating, Wheat [10, 21]: 0 | Plant response rating, Wheat [10, 22]: 0 | Plant response rating, Wild Oat (wild oat (Avena fatua); [21]): 0 | Plant response rating, Wild Oat (wild oat (Avena fatua); [22]): 10 | Plant response rating, Nightshade (Nightshade; Rate 62 g/ha, scale 0 to 100): 30 | Plant response rating, Nightshade (Nightshade; [23]): 50 | Plant response rating, Nightshade (Nightshade; [24]): 100 | Plant response rating, Sunflower (Sunflower [11]): 10 | Plant response rating, Ragweed, Common [12, 23]: 0 | Plant response rating, Ragweed, Common [12, 25]: 0 | Plant response rating (0 to 100), Ragweed, Common ([12]; preemergence): 0 | Plant response rating, Ragweed, Common [12, 26]: 0 | Plant response rating, Corn (corn (Zea mays) [13]; [23]): 0 | Plant response rating, Corn (corn (Zea mays) [13]; [25]): 0 | Plant response rating (0 to 100), Corn (corn (Zea mays) [13]; preemergence, Rate 250 g/ha): 0 | Plant response rating (0 to 100), Corn (corn (Zea mays) [13]; preemergence, Rate 500 g/ha): 0 | Plant response rating, Goosegrass [14, 23]: 80 | Plant response rating, Goosegrass [14, 25]: 20 | Plant response rating (0 to 100), Goosegrass ([14]; preemergence, Rate 250 g/ha): 90 | Plant response rating (0 to 100), Goosegrass ([14]; preemergence, Rate 500 g/ha): 100 | Plant response rating, Johnsongrass [15, 23]: 0 | Plant response rating, Johnsongrass [15, 25]: 0 | Plant response rating (0 to 100), Johnsongrass ([15]; preemergence, Rate 250 g/ha): 0 | Plant response rating (0 to 100), Johnsongrass ([15]; preemergence, Rate 500 g/ha): 0 | Plant response rating, Lambsquarters [16, 23]: 100 | Plant response rating, Lambsquarters [16, 25]: 100 | Plant response rating (0 to 100), Lambsquarters ([16]; preemergence): 100 | Plant response rating, Lambsquarters [16, 26]: 100 | Plant response rating, Morningglory [17, 23]: 20 | Plant response rating, Morningglory [17, 25]: 0 | Plant response rating (0 to 100), Morningglory ([17]; preemergence): 20 | Plant response rating, Morningglory [17, 26]: 20 | Plant response rating, Velvetleaf [18, 23]: 0 | Plant response rating, Velvetleaf [18, 25]: 0 | Plant response rating (0 to 100), Velvetleaf ([18]; preemergence): 0 | Plant response rating, Velvetleaf [18, 26]: 0 | Plant response rating, Nutsedge [19, 23]: 0 | Plant response rating, Nutsedge [19, 25]: 0 | Plant response rating (0 to 100), Nutsedge ([19]; preemergence): 0 | Plant response rating, Nutsedge [19, 26]: 0 | Plant response rating (0 to 100), Sunflower (Sunflower [20]): 30

COc1cc(N2CCC(n3ccc(C(C)C)n3)C2=O)ccc1C (stereo not drawn) [Compound 85]
Plant response rating, Surinam grass [1, 21]: 0 | Plant response rating, Surinam grass [1, 22]: 0 | Plant response rating, Barnyardgrass [2, 21]: 0 | Plant response rating, Barnyardgrass [2, 22]: 50 | Plant response rating, Cocklebur [3, 21]: 40 | Plant response rating, Cocklebur [3, 22]: 100 | Plant response rating, Corn (corn (Zea mays) [4]; [21]): 0 | Plant response rating, Corn (corn (Zea mays) [4]; [22]): 30 | Plant response rating, Crabgrass [5, 21]: 20 | Plant response rating, Crabgrass [5, 22]: 50 | Plant response rating, Foxtail, Giant [6, 21]: 0 | Plant response rating, Foxtail, Giant [6, 22]: 20 | Plant response rating, Morningglory [7, 21]: 0 | Plant response rating, Morningglory [7, 22]: 80 | Plant response rating, Pigweed [8, 21]: 60 | Plant response rating, Pigweed [8, 22]: 90 | Plant response rating, Velvetleaf [9, 21]: 20 | Plant response rating, Velvetleaf [9, 22]: 50 | Plant response rating, Wheat [10, 21]: 0 | Plant response rating, Wheat [10, 22]: 0 | Plant response rating, Wild Oat (wild oat (Avena fatua); [21]): 0 | Plant response rating, Wild Oat (wild oat (Avena fatua); [22]): 20 | Plant response rating, Nightshade (Nightshade; Rate 62 g/ha, scale 0 to 100): 80 | Plant response rating, Nightshade (Nightshade; [23]): 90 | Plant response rating, Nightshade (Nightshade; [24]): 100 | Plant response rating, Sunflower (Sunflower [11]): 70 | Plant response rating, Ragweed, Common [12, 23]: 100 | Plant response rating, Ragweed, Common [12, 25]: 90 | Plant response rating (0 to 100), Ragweed, Common ([12]; preemergence): 100 | Plant response rating, Ragweed, Common [12, 26]: 100 | Plant response rating, Corn (corn (Zea mays) [13]; [23]): 30 | Plant response rating, Corn (corn (Zea mays) [13]; [25]): 30 | Plant response rating (0 to 100), Corn (corn (Zea mays) [13]; preemergence, Rate 250 g/ha): 60 | Plant response rating (0 to 100), Corn (corn (Zea mays) [13]; preemergence, Rate 500 g/ha): 80 | Plant response rating, Goosegrass [14, 23]: 100 | Plant response rating, Goosegrass [14, 25]: 20 | Plant response rating (0 to 100), Goosegrass ([14]; preemergence, Rate 250 g/ha): 100 | Plant response rating (0 to 100), Goosegrass ([14]; preemergence, Rate 500 g/ha): 100 | Plant response rating, Johnsongrass [15, 23]: 50 | Plant response rating (0 to 100), Johnsongrass ([15]; preemergence, Rate 250 g/ha): 80 | Plant response rating (0 to 100), Johnsongrass ([15]; preemergence, Rate 500 g/ha): 100 | Plant response rating, Lambsquarters [16, 23]: 100 | Plant response rating, Lambsquarters [16, 25]: 100 | Plant response rating (0 to 100), Lambsquarters ([16]; preemergence): 100 | Plant response rating, Lambsquarters [16, 26]: 100 | Plant response rating, Morningglory [17, 23]: 90 | Plant response rating, Morningglory [17, 25]: 50 | Plant response rating (0 to 100), Morningglory ([17]; preemergence): 100 | Plant response rating, Morningglory [17, 26]: 90 | Plant response rating, Velvetleaf [18, 23]: 70 | Plant response rating, Velvetleaf [18, 25]: 70 | Plant response rating (0 to 100), Velvetleaf ([18]; preemergence): 100 | Plant response rating, Velvetleaf [18, 26]: 80 | Plant response rating, Nutsedge [19, 23]: 70 | Plant response rating, Nutsedge [19, 25]: 50 | Plant response rating (0 to 100), Nutsedge ([19]; preemergence): 90 | Plant response rating, Nutsedge [19, 26]: 70 | Plant response rating (0 to 100), Sunflower (Sunflower [20]): 70
